# In patent publication US20250268934A1, “Compositions and Methods for the Treatment of Bacterial Vaginosis” (priority 2022, published 2025):
# Columns and labels:
# [1] = tested on: G. vaginalis ATCC 14018 planktonic cells; test: Checkerboard assay / MIC against planktonic cells; format: cell-based; settings: Gardnerella vaginalis, ATCC14018; agent alone, planktonic G. vaginalis 14018, 24 h anaerobic, 37° C.; read-out: minimal inhibitory concentration (MIC)
# Description: From each dilution of boric acid, 50 μl was added horizontally over 50 μl of metronidazole or tinidazole.
# The FIC index (FICI) for the combination of two agents is the sum of their individual FIC values.
# [2] = tested on: biofilm formation by G. vaginalis ATCC 14018; test: Inhibition of biofilm formation (MIC-B, crystal violet staining, checkerboard); format: cell-based, Gardnerella vaginalis; settings: for MIC: Gardnerella vaginalis, ATCC14018, read-out: MIC-B90
# Description: Combinations of boric acid with metronidazole or tinidazole were tested in vitro in a non-planktonic, biofilm model for inhibition of biofilm formation by G. vaginalis (ATCC strain 14018).
# Bacterial strain, culture media and growth conditions: From the frozen stock (−80° C.), G. vaginalis ATCC 14018 was inoculated in three culture media and propagated at 37° C. for 48 h. Brain-heart infusion (BHI) broth (Difco BD, Franklin, NJ, USA) supplemented with horse serum 3% (JRH Biosciences, KS) was used to maintain microbial growth. […] (HBT) agar (Remel, Lenexa, KS, USA) was used to confirm the purity of the frozen stock. The inoculated broth and HBT agar were incubated anaerobically (10% hydrogen, 5% carbon dioxide and 85% nitrogen) using an anaerobic gloves box (Coy Laboratory Products, Inc., Grass Lake, MI, USA). After the incubation period, the bacterial cells were transferred to BHI broth supplemented with 1% glucose (Fisher Scientific, Waltham, MA, USA) (BHIG), every 24 h twice prior to the initiation of an experiment. In order to provide suitable conditions for G. vaginalis anaerobic growth and to avoid oxidative stress, culture media were pre-incubated in the anaerobic chamber at least overnight before bacterial inoculation.
# Stock solutions of antibacterial agents: Antimicrobials were evaluated for their activity against biofilm-associated G. vaginalis. Metronidazole was purchased from Alfa Aesar (Ward Hill, Massachusetts, USA). Metronidazole was prepared as a stock solution of 10 mg mL^−1 in ddH2O. Tinidazole was purchased from TCI America (Portland, OR, USA). Tinidazole was prepared as a stock solution of 10 mg/ml in DMSO. Boric acid was purchased from Fisher Chemical (Hampton, NH, USA). A fresh 1 mg mL^−1 boric acid solution in BHIG was prepared at the beginning of each experiment within the anaerobic chamber, and mixed with BHIG that had been in the anaerobic chamber overnight (to avoid oxidative stress). The stock solutions of antimicrobials were sterilized using syringe filter 0.45 μm and kept in the refrigerator for a maximum of 3 weeks. On the day of the experiment, the stock solutions were diluted in the anaerobic chamber (to avoid oxidative stress) with pre-incubated BHIG broth to avoid changing the concentrations of nutrients of growth media.
# Determination of minimum biofilm inhibitory concentrations (MICs-B): MIC determination was performed according to Sutyak et al. (Antimicrob Agents, Ch 56: 1756-61, 2012) with minor modifications. Each agent was diluted two-fold with BHIG broth into two separate 96-well non-tissue culture microplates. From each dilution of boric acid, 50 μl was added horizontally over 50 μl of metronidazole or tinidazole. The final volume of antimicrobial agents diluted into the broth was 100 μL in each well. The overnight cell culture at 3±2×10^8 CFU mL^−1 was diluted in BHIG to a final concentration of 5×10^6 CFU mL^−1. From the diluted bacterial cells, 100 μL was transferred into the wells containing predetermined concentrations of antimicrobials. Sterile sealing tape (Thermo Fisher Scientific, Rochester, NY) was used to prevent evaporation. The 96-well plate was then incubated anaerobically at 37° C. for 48 h. After incubation, the biofilm was stained using 0.1% crystal violet as described by Algburi et al. (Antimicrob Agents, Ch. 61: e00650-17, 2017); Weeks et al. (Pathog Dis 77(8):ftz059, 2019; doi: 10.1093/femspd/ftz059).
# Biofilm staining using CV: Biofilm staining using CV was performed as described by Borucki et al. (Appl Environ Microbiol, 69(12):7336-42, 2003, doi: 10.1128/AEM.69.12.7336-7342.2003) with minor modifications. Briefly, after counting of the non-adherent cells, the biofilm was fixed at 60° C. for 60 minutes in an inverted position in an incubator (New Brunswick Scientific Co., Inc., NJ, USA). To each well, 125 μl of 0.1% CV was added and left at room temperature for 20 minutes.
# [3] = concentration needed to inhibit 90% of biofilm, agent alone
structure (smiles),measurement,setting,value
OB(O)O [boric acid],MIC,[1],1.25 µg/mL
same,MIC,[2]; [3],2.5 µg/mL
same,MIC-B90,[2]; [3],0.25 % m/v
same,Biofilm mass as a percentage of an untreated control,[2]; well A10: boric acid 0.5 m/v alone (metronidazole 0),−2%
same,Biofilm mass as a percentage of an untreated control,[2]; well A10: boric acid 0.5 m/v alone (tinidazole 0),−1%
same,Biofilm mass as a percentage of an untreated control,[2]; well B10: boric acid 0.25 m/v alone (metronidazole 0),−1%
same,Biofilm mass as a percentage of an untreated control,[2]; well B10: boric acid 0.25 m/v alone (tinidazole 0),0%
same,Biofilm mass as a percentage of an untreated control,[2]; well C10: boric acid 0.125 m/v alone (metronidazole 0),85%
same,Biofilm mass as a percentage of an untreated control,[2]; well C10: boric acid 0.125 m/v alone (tinidazole 0),63%
same,Biofilm mass as a percentage of an untreated control,[2]; well D10: boric acid 0.0625 m/v alone (metronidazole 0),95%
same,Biofilm mass as a percentage of an untreated control,[2]; well D10: boric acid 0.0625 m/v alone (tinidazole 0),88%
same,Biofilm mass as a percentage of an untreated control,[2]; well E10: boric acid 0.03125 m/v alone (metronidazole 0),92%
same,Biofilm mass as a percentage of an untreated control,[2]; well E10: boric acid 0.03125 m/v alone (tinidazole 0),93%
same,Biofilm mass as a percentage of an untreated control,[2]; well F10: boric acid 0.015625 m/v alone (metronidazole 0),100%
same,Biofilm mass as a percentage of an untreated control,[2]; well F10: boric acid 0.015625 m/v alone (tinidazole 0),95%
same,Biofilm mass as a percentage of an untreated control,[2]; well G10: boric acid 0.007813 m/v alone (metronidazole 0),101%
same,Biofilm mass as a percentage of an untreated control,[2]; well G10: boric acid 0.007813 m/v alone (tinidazole 0),98%
Cc1ncc([N+](=O)[O-])n1CCO [metronidazole],MIC,[1],6.25 µg/mL
same,MIC,[2]; [3],25 µg/mL
same,Biofilm mass as a percentage of an untreated control,[2]; well H1: metronidazole 25 μg/ml alone (boric acid 0),0%
same,Biofilm mass as a percentage of an untreated control,[2]; well H2: metronidazole 12.5 μg/ml alone (boric acid 0),11%
same,Biofilm mass as a percentage of an untreated control,[2]; well H3: metronidazole 6.25 μg/ml alone (boric acid 0),61%
same,Biofilm mass as a percentage of an untreated control,[2]; well H4: metronidazole 3.125 μg/ml alone (boric acid 0),73%
same,Biofilm mass as a percentage of an untreated control,[2]; well H5: metronidazole 1.5625 μg/ml alone (boric acid 0),88%
same,Biofilm mass as a percentage of an untreated control,[2]; well H6: metronidazole 0.78125 μg/ml alone (boric acid 0),96%
same,Biofilm mass as a percentage of an untreated control,[2]; well H7: metronidazole 0.390625 μg/ml alone (boric acid 0),95%
same,Biofilm mass as a percentage of an untreated control,[2]; well H8: metronidazole 0.195313 μg/ml alone (boric acid 0),123%
same,Biofilm mass as a percentage of an untreated control,[2]; well H9: metronidazole 0.09765625 μg/ml alone (boric acid 0),100%
CCS(=O)(=O)CCn1c([N+](=O)[O-])cnc1C [tinidazole],MIC,[1],1.56 µg/mL
same,MIC,[2]; [3],25 µg/mL
same,Biofilm mass as a percentage of an untreated control,[2]; well H1: tinidazole 25 μg/ml alone (boric acid 0),6%
same,Biofilm mass as a percentage of an untreated control,[2]; well H2: tinidazole 12.5 μg/ml alone (boric acid 0),15%
same,Biofilm mass as a percentage of an untreated control,[2]; well H3: tinidazole 6.25 μg/ml alone (boric acid 0),33%
same,Biofilm mass as a percentage of an untreated control,[2]; well H4: tinidazole 3.125 μg/ml alone (boric acid 0),104%
same,Biofilm mass as a percentage of an untreated control,[2]; well H5: tinidazole 1.5625 μg/ml alone (boric acid 0),133%
same,Biofilm mass as a percentage of an untreated control,[2]; well H6: tinidazole 0.78125 μg/ml alone (boric acid 0),134%
same,Biofilm mass as a percentage of an untreated control,[2]; well H7: tinidazole 0.390625 μg/ml alone (boric acid 0),88%
same,Biofilm mass as a percentage of an untreated control,[2]; well H8: tinidazole 0.195313 μg/ml alone (boric acid 0),92%
same,Biofilm mass as a percentage of an untreated control,[2]; well H9: tinidazole 0.09765625 μg/ml alone (boric acid 0),95%
